The subject of this assay is mice intraperitoneally administered with LPS. In words: LPS-administered mouse. It is filed as in vivo. The protocol:
At 0, 6 and 24 hr from the LPS administration, heparin plasma was collected, and the concentrations of mouse IL-6 and mouse VEGF were measured using ELISA kit (R&D).
The survival rate of the mice intraperitoneally administered with LPS at a concentration of 16 mg/kg is shown. The N-terminal domain of PTX3 (5 mg/kg) or control buffer was intraperitoneally administered 2 hr prior to LPS administration. In addition, the time-course changes in the plasma IL-6 and VEGF levels of the LPS-administrated mice treated with the N-terminal domain of PTX3 were measured by ELISA.

The mark [1] stands for this setting: LPS-administrated mice, 5 mg/kg, ELISA.

The results in this text go back to patent US20150299277A1, “AGENT FOR TREATING OR PREVENTING SYSTEMIC INFLAMMATORY RESPONSE SYNDROME” (THE UNIVERSITY OF TOKYO, priority 2012, published 2015).

For “N-terminal domain of PTX3: N-terminal domain human PTX3 (18-178 amino acids, SEQ ID NO: 3), tagged, expressed in CHO cells or Escherichia coli”, the “inflammatory reaction caused by LPS administration (biochemical study of blood)” value (5 mg/kg intraperitoneally 2 hr prior to LPS 16 mg/kg) is “suppressed”. The “mortality due to LPS administration” value (5 mg/kg intraperitoneally 2 hr prior to LPS 16 mg/kg, C57BL/6 mice) is “significantly improved mortality”. Further, under setting [1], the “plasma IL-6 level” value was “suppressed” and the “plasma VEGF level” value is listed as “suppressed”.
